# According to patent US12643871B2, “Aryl formamide compound containing chiral sulfur oxide or salt thereof, preparation method, herbicidal composition and use thereof” (Qingdao Kingagroot Chemical Compound Co., Ltd., priority 2019, dated 2026):
# Tests used:
# Format in all cases: in vivo
# Alopecurus japonicas = test: Comparison experiment (post-emergence) against racemate / S configuration; conditions: Table 6, post-seedling test conditions
# Description: (§1) The above growth control rates are fresh weight control rates.
# (§2) Experiment on weeding effect in post-emergence stage: monocotyledonous and dicotyledonous weed seeds (Descurainia sophia, Capsella bursa-pastoris, Galium aparine, Stellaria media, Lithospermum arvense, Rorippa indica, Alopecurus aequalis, Beckmannia syzigachne, Sclerochloa dura, Phleum paniculatum, Bromus japonicus, Aegilops tauschii, Phalaris arundinacea, Amaranthus retroflexus, Chenopodiaceae, Commelina communis, Sonchus arvensis, convolvulus arvensis, Cirsium setosum, Solanum nigrum, Acalypha australis, Digitaria sanguinalis, Echinochloa crusgalli, Setaria viridis, Setaria glauca, Leptochloa chinensis, Monochoria vaginalis, Sagittaria trifolia, Scirpus juncoides, Cyperus rotundus, Cyperus iria, Cyperus difformis, Fimbristylis, Portulaca oleracea, Xanthium sibiricum, Pharbitis nil) and major crop seeds (wheat, corn, rice, soybean, cotton, oilseed rape, millet, sorghum, potato, sesame, ricinus) were placed in plastic pots filled with soil, then covered with 0.5-2 cm of soil, allowed to grow in a good greenhouse environment. After 2 weeks of sowing, the test plants were treated in the 2 leaf stage. The tested compounds of the present invention were respectively dissolved in acetone, then added with Tween 80 and 1.5 liter/ha of emulsifiable concentrate of methyl oleate as synergist, diluted with a certain amount of water to obtain a solution with a certain concentration, and sprayed with a spray tower onto the plants. After the application, the plants were cultured for 15 days in the greenhouse, and then the experimental results of the weeding were counted. The doses of the used compounds were 500, 250, 125, 60, 30, 15 g/ha, and the averages were obtained by repeating for three times.
# (§3) If there is no clear marker, the post-seedling test conditions are the same as above, and the experimental results are shown in Tables 4-7.
# Digitaria sanguinalis [1] = test: as above; conditions: Digitaria sanguinalis, post-emergence, Table 6, post-seedling test conditions
# Description: as §1, §2, §3
# Abutilon theophrasti = test: as above; conditions: Abutilon theophrasti (3.5 leaf), 16DAA
# Green Setaria viridis = test: as above; conditions: for Results of comparison experiment (16DAA), weed control: Setaria viridis (4 leaf)
# Leptochloa chinensis = test: as above; conditions: Leptochloa chinensis (4.5 leaf), 16DAA
# Corn-Zhengdan 958 = test: Comparison experiment (post-emergence, Table 7), crop safety on corn; conditions: Corn-Zhengdan 958 (3.5 leaf)
# Description: as §3
# Amaranthus retroflexus = test: Comparison experiment (post-emergence, Table 7); conditions: Amaranthus retroflexus (6 leaf)
# Description: as §3
# Capsella bursa-pastoris = test: Comparison experiment (post-emergence, Table 7); conditions: Capsella bursa-pastoris (10-11 leaf)
# Description: as §3
# Descurainia sophia = test: Comparison experiment (post-emergence, Table 7); conditions: Descurainia sophia (12 leaf)
# Description: as §3
# Echinochloa crusgali = test: Comparison experiment (post-emergence, Table 7); conditions: Echinochloa crusgali (3 leaf)
# Description: as §3
# Galium aparine = test: Comparison experiment (post-emergence, Table 7); conditions: Galium aparine (5 branches)
# Description: as §3
# Malachium aquaticum = test: Comparison experiment (post-emergence, Table 7); conditions: Malachium aquaticum (2 branches)
# Description: as §3
# Sinapis arvensis = test: Comparison experiment (post-emergence, Table 7); conditions: Sinapis arvensis (3.5 leaf)
# Description: as §3
# Veronica didyma = test: Comparison experiment (post-emergence, Table 7); conditions: Veronica didyma (2 branches)
# Description: as §3
# Digitaria sanguinalis [2] = test: Comparison experiment (post-emergence) against racemate / S configuration; conditions: Digitaria sanguinalis (3.5 leaf), 16DAA
smiles,measurement,setting,value
CC[S@@+]([O-])c1c(C(F)(F)F)ccc(C(=O)Nc2nnc(C)o2)c1SC [Compound 548],"Results of comparison experiment, Alopecurus japonicas (120 g/ha)",Alopecurus japonicas,50%
same,pest or weed control at 30 g/ha,Digitaria sanguinalis [1],100%
same,"Results of comparison experiment (16DAA), weed control",Abutilon theophrasti; 3 g/ha,30%
same,"Results of comparison experiment (16DAA), weed control",Abutilon theophrasti; 6 g/ha,40%
same,"Results of comparison experiment (16DAA), weed control",Abutilon theophrasti; 12 g/ha,50%
same,"Results of comparison experiment (16DAA), weed control",Abutilon theophrasti; 24 g/ha,70%
same,"Results of comparison experiment (16DAA), weed control",Abutilon theophrasti; 48 g/ha,100%
same,"Results of comparison experiment, Green Setaria viridis (30 g/ha)","Green Setaria viridis; 30 g/ha, Table 6, post-seedling test conditions",100%
same,"Results of comparison experiment (16DAA), weed control",Green Setaria viridis; 3 g/ha,20%
same,"Results of comparison experiment (16DAA), weed control",Green Setaria viridis; 6 g/ha,40%
same,"Results of comparison experiment (16DAA), weed control",Green Setaria viridis; 12 g/ha,80%
same,"Results of comparison experiment (16DAA), weed control",Green Setaria viridis; 24 g/ha,100%
same,"Results of comparison experiment (16DAA), weed control",Green Setaria viridis; 48 g/ha,100%
same,"Results of comparison experiment (16DAA), weed control",Leptochloa chinensis; 3 g/ha,0%
same,"Results of comparison experiment (16DAA), weed control",Leptochloa chinensis; 6 g/ha,20%
same,"Results of comparison experiment (16DAA), weed control",Leptochloa chinensis; 12 g/ha,50%
same,"Results of comparison experiment (16DAA), weed control",Leptochloa chinensis; 24 g/ha,70%
same,"Results of comparison experiment (16DAA), weed control",Leptochloa chinensis; 48 g/ha,80%
same,"Results of comparison experiment (16DAA), crop damage",Corn-Zhengdan 958; 3 g/ha,0%
same,"Results of comparison experiment (16DAA), crop damage",Corn-Zhengdan 958; 6 g/ha,0%
same,"Results of comparison experiment (16DAA), crop damage",Corn-Zhengdan 958; 12 g/ha,0%
same,"Results of comparison experiment (16DAA), crop damage",Corn-Zhengdan 958; 24 g/ha,0%
same,"Results of comparison experiment (16DAA), crop damage",Corn-Zhengdan 958; 48 g/ha,0%
same,"Results of comparison experiment (16DAA), weed control",Amaranthus retroflexus; 3 g/ha,30%
same,"Results of comparison experiment (16DAA), weed control",Amaranthus retroflexus; 6 g/ha,40%
same,"Results of comparison experiment (16DAA), weed control",Amaranthus retroflexus; 12 g/ha,60%
same,"Results of comparison experiment (16DAA), weed control",Amaranthus retroflexus; 24 g/ha,80%
same,"Results of comparison experiment (16DAA), weed control",Amaranthus retroflexus; 48 g/ha,100%
same,"Results of comparison experiment (16DAA), weed control",Capsella bursa-pastoris; 3 g/ha,10%
same,"Results of comparison experiment (16DAA), weed control",Capsella bursa-pastoris; 6 g/ha,30%
same,"Results of comparison experiment (16DAA), weed control",Capsella bursa-pastoris; 12 g/ha,50%
same,"Results of comparison experiment (16DAA), weed control",Capsella bursa-pastoris; 24 g/ha,70%
same,"Results of comparison experiment (16DAA), weed control",Capsella bursa-pastoris; 48 g/ha,100%
same,"Results of comparison experiment (16DAA), weed control",Descurainia sophia; 3 g/ha,50%
same,"Results of comparison experiment (16DAA), weed control",Descurainia sophia; 6 g/ha,70%
same,"Results of comparison experiment (16DAA), weed control",Descurainia sophia; 12 g/ha,80%
same,"Results of comparison experiment (16DAA), weed control",Descurainia sophia; 24 g/ha,100%
same,"Results of comparison experiment (16DAA), weed control",Descurainia sophia; 48 g/ha,100%
same,"Results of comparison experiment (16DAA), weed control",Echinochloa crusgali; 3 g/ha,50%
same,"Results of comparison experiment (16DAA), weed control",Echinochloa crusgali; 6 g/ha,50%
same,"Results of comparison experiment (16DAA), weed control",Echinochloa crusgali; 12 g/ha,70%
same,"Results of comparison experiment (16DAA), weed control",Echinochloa crusgali; 24 g/ha,80%
same,"Results of comparison experiment (16DAA), weed control",Echinochloa crusgali; 48 g/ha,100%
same,"Results of comparison experiment (16DAA), weed control",Galium aparine; 3 g/ha,10%
same,"Results of comparison experiment (16DAA), weed control",Galium aparine; 6 g/ha,10%
same,"Results of comparison experiment (16DAA), weed control",Galium aparine; 12 g/ha,20%
same,"Results of comparison experiment (16DAA), weed control",Galium aparine; 24 g/ha,20%
same,"Results of comparison experiment (16DAA), weed control",Galium aparine; 48 g/ha,30%
same,"Results of comparison experiment (16DAA), weed control",Malachium aquaticum; 3 g/ha,30%
same,"Results of comparison experiment (16DAA), weed control",Malachium aquaticum; 6 g/ha,50%
same,"Results of comparison experiment (16DAA), weed control",Malachium aquaticum; 12 g/ha,70%
same,"Results of comparison experiment (16DAA), weed control",Malachium aquaticum; 24 g/ha,100%
same,"Results of comparison experiment (16DAA), weed control",Malachium aquaticum; 48 g/ha,100%
same,"Results of comparison experiment (16DAA), weed control",Sinapis arvensis; 3 g/ha,30%
same,"Results of comparison experiment (16DAA), weed control",Sinapis arvensis; 6 g/ha,40%
same,"Results of comparison experiment (16DAA), weed control",Sinapis arvensis; 12 g/ha,50%
same,"Results of comparison experiment (16DAA), weed control",Sinapis arvensis; 24 g/ha,60%
same,"Results of comparison experiment (16DAA), weed control",Sinapis arvensis; 48 g/ha,80%
same,"Results of comparison experiment (16DAA), weed control",Veronica didyma; 3 g/ha,10%
same,"Results of comparison experiment (16DAA), weed control",Veronica didyma; 6 g/ha,20%
same,"Results of comparison experiment (16DAA), weed control",Veronica didyma; 12 g/ha,20%
same,"Results of comparison experiment (16DAA), weed control",Veronica didyma; 24 g/ha,50%
same,"Results of comparison experiment (16DAA), weed control",Veronica didyma; 48 g/ha,70%
same,"Results of comparison experiment (16DAA), weed control",Digitaria sanguinalis [2]; 3 g/ha,40%
same,"Results of comparison experiment (16DAA), weed control",Digitaria sanguinalis [2]; 6 g/ha,40%
same,"Results of comparison experiment (16DAA), weed control",Digitaria sanguinalis [2]; 12 g/ha,60%
same,"Results of comparison experiment (16DAA), weed control",Digitaria sanguinalis [2]; 24 g/ha,80%
same,"Results of comparison experiment (16DAA), weed control",Digitaria sanguinalis [2]; 48 g/ha,100%
